Drawing on patent publication US10710986B2, “PD-1/PD-L1 inhibitors” (Gilead Sciences, Inc., priority 2018, dated 2020), this text covers IC50 for 21 molecules.

The target of this assay is PD-1/PD-L1 (Homo sapiens (Human), UniProt Q9NZQ7). Description: PD-1/PD-L1 biochemical protein-protein interaction assay (ALPHA). The note with it: 0.3 nM His tagged PD-L1, 2.5 nM biotinylated Fc-PD-1, 60 minutes at 25° C., read-out: IC50 PD-L1-PD1.
Chain of PD-1/PD-L1 (Q9NZQ7 19-238): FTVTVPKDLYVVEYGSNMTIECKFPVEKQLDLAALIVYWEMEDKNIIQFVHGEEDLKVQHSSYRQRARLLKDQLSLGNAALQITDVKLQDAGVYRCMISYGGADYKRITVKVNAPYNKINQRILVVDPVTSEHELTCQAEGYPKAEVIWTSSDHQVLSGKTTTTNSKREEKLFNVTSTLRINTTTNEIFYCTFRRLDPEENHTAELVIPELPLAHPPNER
By IC50 is commonly meant the concentration that inhibits the measured activity by half. As for `COc1nc(-c2cccc(-c3cccc(-c4cnc(CN[C@H]5C[C@@H](OC)C5)c(OC)n4)c3Cl)c2Cl)cnc1CNC[C@@H]1CCC(=O)N1` [compound 365], the IC50 turned out to be 0.07 nM.

Consider `COc1nc(-c2cccc(-c3cccc(-c4cnc(CNC[C@@H]5CCC(=O)N5)c(OC)n4)c3Cl)c2Cl)cnc1CNC[C@H]1CNC(=O)C1` [compound 481], for which the IC50 was 0.227 nM.

As to `COc1nc(-c2cccc(-c3cccc(-c4cnc(CN[C@H]5C[C@H](S(C)(=O)=O)C5)c(OC)n4)c3Cl)c2Cl)cnc1CNC[C@@H]1CCC(=O)N1` [compound 357], the IC50 stood at 0.096 nM.

Consider `COc1nc(-c2cccc(-c3cccc(-c4cnc(CN5CC(NS(C)(=O)=O)C5)c(OC)n4)c3Cl)c2Cl)cnc1CNC[C@@H]1CCC(=O)N1` [compound 559], for which the IC50 is 0.12 nM.

Take `COc1nc(-c2cccc(-c3cccc(-c4cnc(CN5CC(C)(CO)C5)c(OC)n4)c3Cl)c2Cl)cnc1CNC[C@@H]1CCC(=O)N1` [compound 175]: the IC50 came to 0.11 nM.

For `CNc1nc(-c2cccc(-c3cccc(-c4cnc(CN5CC(O)C5)c(OC)n4)c3Cl)c2Cl)cnc1CN1CC(O)C1` [compound 60], the IC50 was 0.14 nM.

With `COc1nc(-c2cccc(-c3cccc(-c4cnc(CN5CC(C)(O)C5)c(OC)n4)c3Cl)c2Cl)cnc1CN1CC(O)C1` [compound 629], the IC50 came to 0.083 nM.

In the case of `COc1nc(-c2cccc(-c3cccc(-c4cnc(CN5CC6(CNC(=O)C6)C5)c(OC)n4)c3Cl)c2Cl)cnc1CNC[C@@H]1CCC(=O)N1` [compound 368], the IC50 is 0.064 nM.

In the case of `Cc1nc(-c2cccc(-c3cccc(-c4cnc(CN5CC(O)C5)c(C)n4)c3Cl)c2Cl)cnc1CN1CC(O)C1` [compound 93], the IC50 stood at 0.566 nM.

Consider `COc1nc(-c2cccc(-c3cccc(-c4cnc(CN5CC[C@H](O)C5)c(OC)n4)c3Cl)c2Cl)cnc1CNC[C@@H]1CCC(=O)N1` [compound 431], for which the IC50 amounted to 0.124 nM.

On to `COc1nc(-c2cccc(-c3cccc(-c4cnc(C5=NC[C@H](C)N5)c(OC)n4)c3Cl)c2Cl)ccc1CNC[C@@H]1CCC(=O)N1` [compound 643], for which the IC50 was 0.064 nM.

Consider `COc1nc(-c2cccc(-c3cccc(-c4cnc(CN5CCC[C@@H]6C(=O)NC[C@@H]65)c(OC)n4)c3Cl)c2Cl)cnc1CNC[C@@H]1CCC(=O)N1` [compound 542], for which the IC50 was 0.392 nM.

Take `COc1nc(-c2cccc(-c3cccc(-c4cnc(CN(C)[C@H]5CCOC5)c(OC)n4)c3Cl)c2Cl)cnc1CNC[C@@H]1CCC(=O)N1` [compound 297]: the IC50 is 0.254 nM.

`COc1nc(-c2cccc(-c3cccc(-c4ccc5c(CNC[C@@H]6CCC(=O)N6)cn(C)c5n4)c3Cl)c2Cl)cnc1CNC[C@@H]1CCC(=O)N1` [compound 495]: the IC50 amounted to 0.247 nM.

As for `COc1nc(-c2cccc(-c3cccc(-c4cnc(CNCCNS(C)(=O)=O)c(OC)n4)c3Cl)c2Cl)cnc1CNCCNS(C)(=O)=O` [compound 575], the IC50 came to 0.064 nM.

On to `COc1nc(-c2cccc(-c3cccc(-c4cnc(CNC[C@@H]5CCC(=O)N5)c(OC)n4)c3Cl)c2Cl)cnc1CNCC1CS(=O)(=O)C1` [compound 311], for which the half-maximal inhibitory concentration (IC50) was found to be 0.24 nM.

As to `COc1nc(-c2cccc(-c3cccc(-c4cnc(CN5CC6(CNC(=O)C6)C5)c(OC)n4)c3Cl)c2Cl)ccc1CN1CC2(CNC(=O)C2)C1` [compound 437], the IC50 amounted to 0.086 nM.

Turning to `COC[C@@H]1CCN1Cc1ncc(-c2cccc(-c3cccc(-c4cnc(CNC[C@@H]5CCC(=O)N5)c(OC)n4)c3Cl)c2Cl)nc1OC` [compound 310], the IC50 was 0.216 nM.

With `COc1nc(-c2cccc(-c3cccc(-c4cnc([C@H](C)N)c(OC)n4)c3Cl)c2Cl)cnc1[C@H](C)N` [compound 385], the IC50 is 0.292 nM.

Consider `COc1nc(-c2cccc(-c3cccc(-c4cnc(CN[C@@H]5CCC[C@@H]5O)c(OC)n4)c3Cl)c2Cl)cnc1CN[C@@H]1CCC[C@@H]1O` [compound 383], for which the IC50 came out at 0.887 nM.

Regarding `COc1nc(-c2cccc(-c3cccc(-c4cnc5c(CNC[C@@H]6CCC(=O)N6)cn(C)c5n4)c3Cl)c2Cl)cnc1CNC[C@H]1CCC(=O)N1` [compound 606], the IC50 is 0.077 nM.
